{
  "source": "patent US20240299486A1",
  "about": "“ADDRESSING INJECTION SITE REACTIONS ASSOCIATED WITH THE ADMINISTRATION OF ELAMIPRETIDE” (STEALTH BIOTHERAPEUTICS INC., priority 2022, published 2024)",
  "key": {"[1]": {"tested_on": "wild type and Mrgprb2 knockout mice", "method": "Adult mice up to 8 months of age were anesthetized with an intraperitoneal injection of ketamine/xylazine. Fifteen (15) minutes after induction of anesthesia, mice were injected intravenously with 50 μL of 12.5 mg/mL Evans Blue in saline. Five (5) minutes later, 5 μL of 0.5 mg/mL elamipretide (in saline) was administered by injection in one paw and saline was administered in the other paw. Fifteen (15) minutes later, mice were sacrificed by decapitation. Paw tissue was collected, dried for 24 hours at 50° C., and weighed. Evans Blue was extracted by a 24-hour incubation in formamide at 50° C., and the optical density (O.D.) was read at 600 nm (the maximum Evans Blue absorbance) and 740 nm (the minimum specific Evans Blue absorbance) using a spectrophotometer. The value at 740 nm, reflecting Evans Blue-independent O.D., was subtracted from the value at 600 nm to attain the final readout.\nInjection site reactions were characterized by local inflammation and edema. The standard assay in mice to monitor local skin inflammation is the Evans Blue assay. In conditions of local skin inflammation, blood vessels become more permeable and components of blood leak out into the local tissue. Evans Blue is a dye that binds to a protein called albumin in the blood and leaks out with the albumin in inflammatory conditions. In this assay, mice were injected intravenously with Evans Blue and the amount of Evans Blue leakage in a tissue was a readout of the extent of inflammation. […] This is preferable to other skin sites in mice, as they are extremely thin, compared to human skin, and injected fluids almost immediately leave the sites of injection."}, "healthy subjects": {"tested_on": "healthy subjects", "test": "Phase 1 crossover study: self-assessed injection site reactions", "assay_type": "in vivo, human", "conditions": "60 mg SQ elamipretide with or without the intervention, across all timepoints, all participants, n = 80", "method": "• This Phase 1, open-label, 6-arm crossover study included 10 healthy subjects ≥18 and ≤65 years of age. • All subjects received 60 mg of SQ elamipretide to alternating quadrants of the abdomen on each of 6 occasions (FIG. 3), with or without the interventions listed in Table 2. • For each treatment arm, ISR clinical and self-assessments were performed pre-elamipretide administration and at 0.5, 1, 2, 4, 6, 12, 24, and 48 hours after each elamipretide dose. • Blood samples for plasma concentrations of elamipretide and its metabolites were also collected pre-dose and at 0.25, 0.5, 1, 2, 4, and 6 hours post-elamipretide dose. • Primary endpoints consisted of comparisons of the grading from the clinical assessments and the self-assessments of each ISR parameter following administration of elamipretide with each separate intervention versus that of elamipretide alone. • Secondary endpoints consisted of comparison of various pharmacokinetic (PK) parameters and adverse events following administration of elamipretide with each separate intervention versus that of elamipretide alone.\nAfter the screening period (up to 28 days) in this phase 1, open-label, 4-week, 6-part, crossover study, all eligible subjects received 60 mg (0.75 mL) of SC elamipretide to alternating quadrants of the abdomen on each of 6 occasions, with or without potential ISR interventions. The first treatment arm (Arm 1) commenced on Day 1 with administration of elamipretide only, followed by the remaining treatment arms (Arms 2-6) with the following potential mitigations: mometasone furoate, 0.1% ointment, applied once under a hydrocolloid occlusive dressing (DuoDERM Extra Thin) 7 days prior to elamipretide administration (Arm 2); ice application at the elamipretide injection site 5 minutes pre- and post-drug administration (Arm 3); tacrolimus 0.1% ointment applied 15 minutes pre-drug dosing (Arm 4); doxepin 5% cream applied 15 minutes pre-elamipretide administration (Arm 5); and diphenhydramine 50 mg orally taken 2 hours prior to administration (Arm 6). For each treatment arm, blood samples for plasma concentrations of elamipretide and its metabolites were collected pre-dose and at 0.25, 0.5, 1, 2, 4, and 6 hours post-elamipretide dose. Vital signs were recorded pre-dose and at 0.5 and 6 hours post-elamipretide administration. ISR clinical and self-assessments were performed pre-elamipretide administration and at 0.5, 1, 2, 4, 6, 12, 24, and 48 hours after each elamipretide dose. Injection sites were photographed at 0.5, 1, 2, 4, and 12 hours post-elamipretide dose.\nThe primary endpoints of this study were comprised of the following efficacy measures: clinical assessments and subject self-assessments. Specifically, the primary endpoints consisted of comparisons of the grading of each ISR parameter following administration of elamipretide with each separate intervention versus the grading of each ISR parameter following administration of elamipretide alone. For clinical assessments, the clinical staff used a standard procedure adapted from the Division of Aids Table for Grading the Severity of Adult and Pediatric Adverse Events to score pain, erythema, induration, and pruritus using a 4-point scale based on severity (0=None, 1=Mild, 2=Moderate, 3=Severe, 4=Potentially Life Threatening). The self-assessments were based on a questionnaire to determine how bothered the patient was following each injection of elamipretide and included the following parameters: pain, burning sensation, cold sensation, itching, redness, swelling, and bruising.\nAll statistical analyses were performed using SAS GRID Linux/SAS Studio (Version 9.4, or higher). PK parameters for elamipretide and its metabolites, M1 and M2, were summarized using descriptive statistics."}, "mouse ortholog Mrgprb2": {"biological_target": "mouse ortholog Mrgprb2 (Mus musculus, UniProt Q3KNA1)", "sequence (Q3KNA1 whole entry)": "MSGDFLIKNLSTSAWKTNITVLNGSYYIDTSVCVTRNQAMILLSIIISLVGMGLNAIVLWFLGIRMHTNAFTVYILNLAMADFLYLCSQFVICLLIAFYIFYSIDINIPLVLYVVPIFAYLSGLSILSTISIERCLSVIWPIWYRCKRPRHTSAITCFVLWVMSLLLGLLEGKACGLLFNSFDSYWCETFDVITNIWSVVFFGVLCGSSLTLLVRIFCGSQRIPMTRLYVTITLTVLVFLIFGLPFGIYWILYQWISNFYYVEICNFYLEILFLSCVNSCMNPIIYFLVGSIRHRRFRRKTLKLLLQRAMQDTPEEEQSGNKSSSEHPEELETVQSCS", "conditions": "HEK293 cells transfected with mouse ortholog Mrgprb2", "method": "A clonal HEK293 cell line stably expressing human MRGPRX2 and Galpha15 was used for the assay, which was performed using a fluorescent plate reader. Cells were plated at 40,000 cells per well in a glass-bottom 96 well plate 20 hours before the assay. Cells were loaded with N-[4-[6-[(Acetyloxy)methoxy]-2,7-difluoro-3-oxo-3H-xanthen-9-yl]-2-[2-[2-[bis[2-[(acetyloxy)methoxy]-2-oxoethyl]amino]-5-methylphenoxy]ethoxy]phenyl]-N-[2-[(acetyloxy)methoxy]-2-oxoethyl]glycine (acetyloxy)methyl ester (Fluo-4 AM) for 45 minutes at 37° C. and allowed to rest for 30 minutes before use. Baseline fluorescence was calculated as the average of a 30 second read, with data points taken at 5 second intervals. Response was defined as the maximum signal within 90 seconds after addition of elamipretide, subtracted by the baseline fluorescence signal. Concentrations were tested in duplicate and the assay was run 6 times. The curve was calculated as a four-parameter non-linear fit with variable slope. Traces were obtained using the same cell line and same Fluo-4 AM loading protocol but were imaged using a fluorescence microscope using a standard fluorescein isothiocyanate (FITC) filter. Fluorescence for different cells was calculated using region of interest selections.\nA calcium-based readout of receptor activity was used to determine whether elamipretide activates human MRGPRX2 and its mouse ortholog Mrgprb2. […]"}},
  "data": [
    {"compound": "Cc1cc(O)cc(C)c1C[C@H](NC(=O)[C@H](N)CCCNC(=N)N)C(=O)N[C@@H](CCCCN)C(=O)N[C@@H](Cc1ccccc1)C(N)=O", "note": "(stereo in doubt) [Elamipretide, H-D-Arg-2′,6′Dmt-Lys-Phe-NH2]", "values": [
      {"measurement": "reduction of Evans Blue accumulation in footpads in Mrgprb2 knockout mice", "setting": "[1]; 0.5 mg/mL elamipretide, knockout vs wild type", "result": 80, "unit": "%"},
      {"measurement": "Evans Blue accumulation in footpads", "setting": "[1]; Mrgprb2 knockout mice, 0.5 mg/mL elamipretide", "result": "almost no Evans Blue accumulation"},
      {"measurement": "Evans Blue labeling in footpads", "setting": "[1]; wild type mice, 5 μL of 0.5 mg/mL elamipretide injected in paw, vs saline", "result": "strong Evans Blue labeling"},
      {"measurement": "Self-assessed Bruising, (%) of Reported Reactions", "setting": "healthy subjects", "result": "(6.3) %"},
      {"measurement": "Self-assessed Bruising, Number of Reported Reactions", "setting": "healthy subjects", "result": 5},
      {"measurement": "Self-assessed Burning sensation, (%) of Reported Reactions", "setting": "healthy subjects", "result": "(16.3) %"},
      {"measurement": "Self-assessed Burning sensation, Number of Reported Reactions", "setting": "healthy subjects", "result": 13},
      {"measurement": "Self-assessed Cold Sensation, Number of Reported Reactions", "setting": "healthy subjects", "result": 0.0},
      {"measurement": "Self-assessed Itching, (%) of Reported Reactions", "setting": "healthy subjects", "result": "(20.0) %"},
      {"measurement": "Self-assessed Itching, Number of Reported Reactions", "setting": "healthy subjects", "result": 16},
      {"measurement": "Self-assessed Pain, (%) of Reported Reactions", "setting": "healthy subjects", "result": "(13.8) %"},
      {"measurement": "Self-assessed Pain, Number of Reported Reactions", "setting": "healthy subjects", "result": 11},
      {"measurement": "Self-assessed Redness, (%) of Reported Reactions", "setting": "healthy subjects", "result": "(30.0) %"},
      {"measurement": "Self-assessed Redness, Number of Reported Reactions", "setting": "healthy subjects", "result": 24},
      {"measurement": "Self-assessed Swelling, (%) of Reported Reactions", "setting": "healthy subjects", "result": "(22.5) %"},
      {"measurement": "Self-assessed Swelling, Number of Reported Reactions", "setting": "healthy subjects", "result": 18},
      {"measurement": "Fluo-4 fluorescence after elamipretide exposure", "setting": "mouse ortholog Mrgprb2", "result": "increased"}
    ]}
  ]
}
